Assay results as given in ChEMBL document CHEMBL1139392, “Synthesis and antibacterial activities of novel oxazolidinones having cyclic sulfonamide moieties” (2008).
Converted amounts (≈) assume the structure as drawn.

How the values were obtained:
Type in all cases: functional
Enterococcus faecium [1] = assay: Antibacterial activity against Enterococcus faecium C803 after 18 to 20 hrs by agar dilution method
Enterococcus [2] = assay: Antibacterial activity against vancomycin-resistant Enterococcus 5 after 18 to 20 hrs by agar dilution method
Staphylococcus = assay: Antibacterial activity against coagulase negative Staphylococcus after 18 to 20 hrs by agar dilution method
Enterococcus [3] = assay: Antibacterial activity against vancomycin-resistant Enterococcus 6 after 18 to 20 hrs by agar dilution method
Enterococcus faecalis = assay: Antibacterial activity against Enterococcus faecalis C474 after 18 to 20 hrs by agar dilution method
Enterococcus [4] = assay: Antibacterial activity against vancomycin-resistant Enterococcus 1 after 18 to 20 hrs by agar dilution method
Streptococcus pyogenes = assay: Antibacterial activity against Streptococcus pyogenes ATCC 8736 after 18 to 20 hrs by agar dilution method
Enterococcus faecium [5] = assay: Antibacterial activity against vancomycin-resistant Enterococcus faecium 1 after 18 to 20 hrs by agar dilution method
Streptococcus agalactiae = assay: Antibacterial activity against Streptococcus agalactiae ATCC 2901 after 18 to 20 hrs by agar dilution method
Enterococcus [6] = assay: Antibacterial activity against vancomycin-resistant Enterococcus 2 after 18 to 20 hrs by agar dilution method
Enterococcus faecium [7] = assay: Antibacterial activity against vancomycin-resistant Enterococcus faecium 2 after 18 to 20 hrs by agar dilution method
Enterococcus [8] = assay: Antibacterial activity against vancomycin-resistant Enterococcus 4 after 18 to 20 hrs by agar dilution method
Enterococcus [9] = assay: Antibacterial activity against vancomycin-resistant Enterococcus 3 after 18 to 20 hrs by agar dilution method
Staphylococcus aureus [10] = assay: Antibacterial activity against methicillin-resistant Staphylococcus aureus 1 after 18 to 20 hrs by agar dilution method
Haemophilus influenzae = assay: Antibacterial activity against Haemophilus influenzae after 18 to 20 hrs by agar dilution method
Staphylococcus aureus [11] = assay: Antibacterial activity against Staphylococcus aureus C463 after 18 to 20 hrs by agar dilution method
Streptococcus pneumoniae = assay: Antibacterial activity against Streptococcus pneumoniae C402 after 18 to 20 hrs by agar dilution method

Row | Structure (SMILES) | MIC (Enterococcus faecium [1]) [µg/mL] | MIC (Enterococcus [2]) [µg/mL] | MIC (Staphylococcus) [µg/mL] | MIC (Enterococcus [3]) [µg/mL] | MIC (Enterococcus faecalis) [µg/mL] | MIC (Enterococcus [4]) [µg/mL] | MIC (Streptococcus pyogenes) [µg/mL] | MIC (Enterococcus faecium [5]) [µg/mL] | MIC (Streptococcus agalactiae) [µg/mL] | MIC (Enterococcus [6]) [µg/mL] | MIC (Enterococcus faecium [7]) [µg/mL] | MIC (Enterococcus [8]) [µg/mL] | MIC (Enterococcus [9]) [µg/mL] | MIC (Staphylococcus aureus [10]) [µg/mL] | MIC (Haemophilus influenzae) [µg/mL] | MIC (Staphylococcus aureus [11]) [µg/mL] | MIC (Streptococcus pneumoniae) [µg/mL]
1 | CCN1CCN(c2ccc(N3C[C@H](CNC(C)=O)OC3=O)cc2F)S1(=O)=O | 1.56 (≈ 3.9 µM) | 6.25 (≈ 15.6 µM) | 6.25 (≈ 15.6 µM) | 3.12 (≈ 7.79 µM) | 3.12 (≈ 7.79 µM) | 3.12 (≈ 7.79 µM) | 0.78 (≈ 1.95 µM) | 6.25 (≈ 15.6 µM) | 3.12 (≈ 7.79 µM) | 6.25 (≈ 15.6 µM) | 3.12 (≈ 7.79 µM) | 3.12 (≈ 7.79 µM) | 3.12 (≈ 7.79 µM) | 6.25 (≈ 15.6 µM) | 3.12 (≈ 7.79 µM) | 6.25 (≈ 15.6 µM) | 0.78 (≈ 1.95 µM)
2 | CC(=O)NC[C@H]1CN(c2ccc(N3CCOCC3)c(F)c2)C(=O)O1 [LINEZOLID] | 1.56 (≈ 4.62 µM) | 1.56 (≈ 4.62 µM) | 1.56 (≈ 4.62 µM) | 1.56 (≈ 4.62 µM) | 1.56 (≈ 4.62 µM) | 0.78 (≈ 2.31 µM) | 0.39 (≈ 1.16 µM) | 1.56 (≈ 4.62 µM) | 1.56 (≈ 4.62 µM) | 1.56 (≈ 4.62 µM) | 0.78 (≈ 2.31 µM) | 1.56 (≈ 4.62 µM) | 1.56 (≈ 4.62 µM) | 3.12 (≈ 9.25 µM) | 1.56 (≈ 4.62 µM) | 1.56 (≈ 4.62 µM) | 0.39 (≈ 1.16 µM)
3 | CC(=O)NC[C@H]1CN(c2ccc(N3CCNS3(=O)=O)c(F)c2)C(=O)O1 | 0.39 (≈ 1.05 µM) | 0.39 (≈ 1.05 µM) | 0.2 (≈ 0.537 µM) | 0.78 (≈ 2.09 µM) | 0.2 (≈ 0.537 µM) | 0.78 (≈ 2.09 µM) | 0.2 (≈ 0.537 µM) | 0.2 (≈ 0.537 µM) | 0.2 (≈ 0.537 µM) | 0.39 (≈ 1.05 µM) | 0.2 (≈ 0.537 µM) | 0.78 (≈ 2.09 µM) | 0.78 (≈ 2.09 µM) | 0.2 (≈ 0.537 µM) | 0.2 (≈ 0.537 µM) | 0.39 (≈ 1.05 µM) | 0.2 (≈ 0.537 µM)
4 | CC(=O)NC[C@H]1CN(c2ccc(N3CCN(C(=O)OC(C)(C)C)S3(=O)=O)c(F)c2)C(=O)O1 | 25 (≈ 52.9 µM) | 12.5 (≈ 26.5 µM) | 12.5 (≈ 26.5 µM) | 12.5 (≈ 26.5 µM) | 12.5 (≈ 26.5 µM) | 25 (≈ 52.9 µM) | 6.25 (≈ 13.2 µM) | 12.5 (≈ 26.5 µM) | 6.25 (≈ 13.2 µM) | 25 (≈ 52.9 µM) | 12.5 (≈ 26.5 µM) | 6.25 (≈ 13.2 µM) | 6.25 (≈ 13.2 µM) | 12.5 (≈ 26.5 µM) | 6.25 (≈ 13.2 µM) | 12.5 (≈ 26.5 µM) | 25 (≈ 52.9 µM)
5 | CC(=O)NC[C@H]1CN(c2ccc(N3CC(C)(C)NS3(=O)=O)c(F)c2)C(=O)O1 | 25 (≈ 62.4 µM) | 12.5 (≈ 31.2 µM) | 12.5 (≈ 31.2 µM) | 12.5 (≈ 31.2 µM) | 12.5 (≈ 31.2 µM) | 25 (≈ 62.4 µM) | 6.25 (≈ 15.6 µM) | 12.5 (≈ 31.2 µM) | 12.5 (≈ 31.2 µM) | 12.5 (≈ 31.2 µM) | 12.5 (≈ 31.2 µM) | 12.5 (≈ 31.2 µM) | 6.25 (≈ 15.6 µM) | 12.5 (≈ 31.2 µM) | 25 (≈ 62.4 µM) | 12.5 (≈ 31.2 µM) | 12.5 (≈ 31.2 µM)
6 | CC(=O)NC[C@H]1CN(c2ccc(N3CCOS3(=O)=O)c(F)c2)C(=O)O1 | 1.56 (≈ 4.18 µM) | 1.56 (≈ 4.18 µM) | 3.12 (≈ 8.36 µM) | 3.12 (≈ 8.36 µM) | 1.56 (≈ 4.18 µM) | 1.56 (≈ 4.18 µM) | 0.78 (≈ 2.09 µM) | 1.56 (≈ 4.18 µM) | 0.39 (≈ 1.04 µM) | 1.56 (≈ 4.18 µM) | 1.56 (≈ 4.18 µM) | 3.12 (≈ 8.36 µM) | 3.12 (≈ 8.36 µM) | 3.12 (≈ 8.36 µM) | 3.12 (≈ 8.36 µM) | 3.12 (≈ 8.36 µM) | 1.56 (≈ 4.18 µM)
7 | CC(=O)NC[C@H]1CN(c2ccc(N3CCN(Cc4ccccc4)S3(=O)=O)c(F)c2)C(=O)O1 | 6.25 (≈ 13.5 µM) | 6.25 (≈ 13.5 µM) | 6.25 (≈ 13.5 µM) | 6.25 (≈ 13.5 µM) | 6.25 (≈ 13.5 µM) | 6.25 (≈ 13.5 µM) | 6.25 (≈ 13.5 µM) | 6.25 (≈ 13.5 µM) | 6.25 (≈ 13.5 µM) | 6.25 (≈ 13.5 µM) | 1.56 (≈ 3.37 µM) | 6.25 (≈ 13.5 µM) | 1.56 (≈ 3.37 µM) | 6.25 (≈ 13.5 µM) | 3.12 (≈ 6.75 µM) | 6.25 (≈ 13.5 µM) | 6.25 (≈ 13.5 µM)
8 | CC(=O)NC[C@H]1CN(c2ccc(N3CCCN(C)S3(=O)=O)c(F)c2)C(=O)O1 | 1.56 (≈ 3.9 µM) | 1.56 (≈ 3.9 µM) | 1.56 (≈ 3.9 µM) | 1.56 (≈ 3.9 µM) | 1.56 (≈ 3.9 µM) | 1.56 (≈ 3.9 µM) | 0.78 (≈ 1.95 µM) | 0.78 (≈ 1.95 µM) | 1.56 (≈ 3.9 µM) | 1.56 (≈ 3.9 µM) | 1.56 (≈ 3.9 µM) | 1.56 (≈ 3.9 µM) | 1.56 (≈ 3.9 µM) | 1.56 (≈ 3.9 µM) | 1.56 (≈ 3.9 µM) | 1.56 (≈ 3.9 µM) | 0.78 (≈ 1.95 µM)
9 | CC(=O)NC[C@H]1CN(c2ccc(N3CCN(C)S3(=O)=O)c(F)c2)C(=O)O1 | 3.12 (≈ 8.07 µM) | 3.12 (≈ 8.07 µM) | 6.25 (≈ 16.2 µM) | 3.12 (≈ 8.07 µM) | 3.12 (≈ 8.07 µM) | 6.25 (≈ 16.2 µM) | 1.56 (≈ 4.04 µM) | 3.12 (≈ 8.07 µM) | 1.56 (≈ 4.04 µM) | 6.25 (≈ 16.2 µM) | 3.12 (≈ 8.07 µM) | 3.12 (≈ 8.07 µM) | 3.12 (≈ 8.07 µM) | 3.12 (≈ 8.07 µM) | 3.12 (≈ 8.07 µM) | 3.12 (≈ 8.07 µM) | 0.78 (≈ 2.02 µM)
10 | CC(=O)NC[C@H]1CN(c2ccc(N3CCCNS3(=O)=O)c(F)c2)C(=O)O1 | 1.56 (≈ 4.04 µM) | 3.12 (≈ 8.07 µM) | 1.56 (≈ 4.04 µM) | 3.12 (≈ 8.07 µM) | 1.56 (≈ 4.04 µM) | 3.12 (≈ 8.07 µM) | 1.56 (≈ 4.04 µM) | 3.12 (≈ 8.07 µM) | 1.56 (≈ 4.04 µM) | 1.56 (≈ 4.04 µM) | 1.56 (≈ 4.04 µM) | 3.12 (≈ 8.07 µM) | 0.78 (≈ 2.02 µM) | 1.56 (≈ 4.04 µM) | 1.56 (≈ 4.04 µM) | 3.12 (≈ 8.07 µM) | 0.78 (≈ 2.02 µM)
11 | CC(=O)NC[C@H]1CN(c2ccc(N3CC(C)NS3(=O)=O)c(F)c2)C(=O)O1 (some centres not stated) | 3.12 (≈ 8.07 µM) | 12.5 (≈ 32.3 µM) | 12.5 (≈ 32.3 µM) | 12.5 (≈ 32.3 µM) | 6.25 (≈ 16.2 µM) | 6.25 (≈ 16.2 µM) | 1.56 (≈ 4.04 µM) | 6.25 (≈ 16.2 µM) | 3.12 (≈ 8.07 µM) | 12.5 (≈ 32.3 µM) | 6.25 (≈ 16.2 µM) | 6.25 (≈ 16.2 µM) | 6.25 (≈ 16.2 µM) | 12.5 (≈ 32.3 µM) | 6.25 (≈ 16.2 µM) | 12.5 (≈ 32.3 µM) | 3.12 (≈ 8.07 µM)
